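Values below derive from 48-hour exposures of cells grown in 96-well plates, with endpoints linearly interpolated between the two concentrations bracketing the appropriate inhibition level. Abbreviation: GI50, concentration required for 50% inhibition of growth.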 The source made the active and inactive calls. Rule as the data show it: active = GI50 up to about 1.1 µM and inactive = higher.
How the values were obtained:
Experiment in all cases: NCI tumour cell line growth inhibition, 48 h
786-0 = tested on: 786-0
COLO 205 = tested on: COLO 205
HCT-116 = tested on: HCT-116
HCT-15 = tested on: HCT-15
HOP-62 = tested on: HOP-62
HT-29 = tested on: HT-29
M14 = tested on: M14
NCI-H226 = tested on: NCI-H226
OVCAR-5 = tested on: OVCAR-5
RXF 393 = tested on: RXF 393
SK-OV-3 = tested on: SK-OV-3
SNB-75 = tested on: SNB-75
SR = tested on: SR
SW-620 = tested on: SW-620
UACC-62 = tested on: UACC-62
UO-31 = tested on: UO-31

| SMILES | GI50 (786-0) | GI50 (COLO 205) | GI50 (HCT-116) | GI50 (HCT-15) | GI50 (HOP-62) | GI50 (HT-29) | GI50 (M14) | GI50 (NCI-H226) | GI50 (OVCAR-5) | GI50 (RXF 393) | GI50 (SK-OV-3) | GI50 (SNB-75) | GI50 (SR) | GI50 (SW-620) | GI50 (UACC-62) | GI50 (UO-31) |
| --- | --- | --- | --- | --- | --- | --- | --- | --- | --- | --- | --- | --- | --- | --- | --- | --- |
| O=C(c1ccccc1)C1N=NN(Cc2ccccc2[N+](=O)[O-])C1C(=O)c1ccccc1 (configuration not stated) | > 100 µM (inactive) | 34.5 µM (inactive) | > 100 µM (inactive) | > 100 µM | > 100 µM (inactive) | > 100 µM (inactive) | > 100 µM (inactive) | > 100 µM (inactive) | > 100 µM (inactive) | > 100 µM (inactive) | 87.3 µM (inactive) | 41.5 µM (inactive) | > 100 µM (inactive) | > 100 µM (inactive) | > 100 µM (inactive) | > 100 µM (inactive) |
| O=C1C2C(C(=O)N1c1ccccc1)C1([N+](=O)[O-])C=C3c4ccccc4N(C(=O)c4ccccc4)C32C2C(=O)N(c3ccccc3)C(=O)C21 (configuration not stated) | > 100 µM (inactive) | > 100 µM (inactive) | > 100 µM (inactive) | > 100 µM | > 100 µM (inactive) | > 100 µM (inactive) | > 100 µM (inactive) | – | > 100 µM (inactive) | – | > 100 µM (inactive) | > 100 µM (inactive) | > 100 µM (inactive) | > 100 µM (inactive) | > 100 µM (inactive) | > 100 µM (inactive) |
| CN1C(=O)C(=CN(C)c2ccccc2)C(=O)N(C)C1=O | > 100 µM (inactive) | – | > 100 µM (inactive) | > 100 µM | – | – | 74.5 µM (inactive) | 63.2 µM (inactive) | > 100 µM (inactive) | 69 µM (inactive) | – | 92.7 µM (inactive) | 37.2 µM (inactive) | 80.5 µM (inactive) | 91.6 µM (inactive) | > 100 µM (inactive) |
| CC1CCCC(C(O)CC2CC(=O)N(c3ccccc3)C(=O)C2)C1=O (configuration not stated) | > 100 µM (inactive) | > 100 µM (inactive) | > 100 µM (inactive) | – | > 100 µM (inactive) | > 100 µM (inactive) | > 100 µM (inactive) | > 100 µM (inactive) | > 100 µM (inactive) | > 100 µM (inactive) | > 100 µM (inactive) | > 100 µM (inactive) | > 100 µM (inactive) | > 100 µM (inactive) | > 100 µM (inactive) | > 100 µM (inactive) |
| C\C=C/C=C/C=C/C(=O)O | > 100 µM (inactive) | > 100 µM (inactive) | > 100 µM (inactive) | > 100 µM | > 100 µM (inactive) | > 100 µM (inactive) | > 100 µM (inactive) | > 100 µM (inactive) | > 100 µM (inactive) | > 100 µM (inactive) | > 100 µM (inactive) | > 100 µM (inactive) | – | > 100 µM (inactive) | > 100 µM (inactive) | > 100 µM (inactive) |
| O=[N+]([O-])c1ccc(-n2nnc(C3=NCCN3)c2-c2ccccc2)cc1 | > 100 µM (inactive) | > 100 µM (inactive) | > 100 µM (inactive) | > 100 µM | > 100 µM (inactive) | > 100 µM (inactive) | > 100 µM (inactive) | > 100 µM (inactive) | > 100 µM (inactive) | > 100 µM (inactive) | > 100 µM (inactive) | > 100 µM (inactive) | > 100 µM (inactive) | > 100 µM (inactive) | > 100 µM (inactive) | > 100 µM (inactive) |
| N#CC1=C(Cl)NC(Cl)=C(C#N)C1c1ccc(Cl)cc1 | 15.8 µM (inactive) | 16.5 µM (inactive) | 20.2 µM (inactive) | 15.4 µM | 18.1 µM (inactive) | 16 µM (inactive) | 16.8 µM (inactive) | 20.5 µM (inactive) | 34 µM (inactive) | 17.1 µM (inactive) | 17.2 µM (inactive) | 14.9 µM (inactive) | 21.7 µM (inactive) | 13.5 µM (inactive) | 16.7 µM (inactive) | 17 µM (inactive) |
| CC1=C(CC2C(=O)N(c3ccccc3)S(=O)(=O)NC2C)C(=O)N(c2ccccc2)S(=O)(=O)N1C (configuration not stated) | > 100 µM (inactive) | > 100 µM (inactive) | > 100 µM (inactive) | > 100 µM | > 100 µM (inactive) | > 100 µM (inactive) | > 100 µM (inactive) | > 100 µM (inactive) | > 100 µM (inactive) | – | > 100 µM (inactive) | > 100 µM (inactive) | > 100 µM (inactive) | > 100 µM (inactive) | > 100 µM (inactive) | > 100 µM (inactive) |
| CCOc1ccccc1NC(=O)C1=C(C)NC(C)=C(C(=O)Nc2ccccc2OCC)C1c1cccc([N+](=O)[O-])c1 | 57.9 µM (inactive) | > 100 µM (inactive) | – | – | 39.3 µM (inactive) | 98.4 µM (inactive) | > 100 µM (inactive) | 80.4 µM (inactive) | > 100 µM (inactive) | 47.4 µM (inactive) | > 100 µM (inactive) | 11.6 µM (inactive) | – | 42.6 µM (inactive) | – | 28.2 µM (inactive) |
| CC(=O)CC(=O)N(CCN(C(=O)CC(C)=O)c1ccccc1)c1ccccc1 | > 100 µM (inactive) | > 100 µM (inactive) | > 100 µM (inactive) | – | > 100 µM (inactive) | – | > 100 µM (inactive) | > 100 µM (inactive) | > 100 µM (inactive) | > 100 µM (inactive) | > 100 µM (inactive) | 51.8 µM (inactive) | – | > 100 µM (inactive) | > 100 µM (inactive) | > 100 µM (inactive) |
| COc1cc2c(cc1OC)C1c3ccccc3C(C#N)(C2)N(C(=O)c2ccccc2)C1O (configuration not stated) | > 100 µM (inactive) | 22.8 µM (inactive) | > 100 µM (inactive) | 55.8 µM | 25.7 µM (inactive) | > 100 µM (inactive) | 79.1 µM (inactive) | 61.1 µM (inactive) | > 100 µM (inactive) | 85.5 µM (inactive) | 77.3 µM (inactive) | 45.7 µM (inactive) | 79.8 µM (inactive) | 65 µM (inactive) | 43.7 µM (inactive) | 61.8 µM (inactive) |
| Fc1cccc(/C=N/C23CC4CC(CC(C4)C2)C3)c1 | > 100 µM (inactive) | > 100 µM (inactive) | > 100 µM (inactive) | > 100 µM | > 100 µM (inactive) | > 100 µM (inactive) | > 100 µM (inactive) | > 100 µM (inactive) | > 100 µM (inactive) | > 100 µM (inactive) | > 100 µM (inactive) | > 100 µM (inactive) | – | – | > 100 µM (inactive) | > 100 µM (inactive) |
| COC(=O)C1=C(O)c2cc3c(cc2[C@H](c2cc(OC)c(OC)c(OC)c2)C1)OCO3 | 58.5 µM (inactive) | 19.3 µM (inactive) | 55.3 µM (inactive) | 25.2 µM | > 100 µM (inactive) | 48.1 µM (inactive) | 34.7 µM (inactive) | 87.7 µM (inactive) | > 100 µM (inactive) | 57.9 µM (inactive) | > 100 µM (inactive) | > 100 µM (inactive) | 30.8 µM (inactive) | 61.4 µM (inactive) | 5.74 µM (inactive) | 3.24 µM (inactive) |
| Clc1ccc(OCc2nnc3n2N=C(c2ccccc2)CS3)cc1 | 16.2 µM (inactive) | 15.3 µM (inactive) | 11.2 µM (inactive) | 13.8 µM | 19.1 µM (inactive) | 16.3 µM (inactive) | 21.5 µM (inactive) | 21.5 µM (inactive) | 21.3 µM (inactive) | – | 20.7 µM (inactive) | 27 µM (inactive) | 6.5 µM (inactive) | 14.7 µM (inactive) | 11.1 µM (inactive) | 5.42 µM (inactive) |
| CS(=O)(=O)N/N=C/CN1C(=O)c2ccccc2C1=O | > 100 µM (inactive) | > 100 µM (inactive) | > 100 µM (inactive) | > 100 µM | > 100 µM (inactive) | > 100 µM (inactive) | > 100 µM (inactive) | > 100 µM (inactive) | > 100 µM (inactive) | – | > 100 µM (inactive) | > 100 µM (inactive) | > 100 µM (inactive) | > 100 µM (inactive) | > 100 µM (inactive) | > 100 µM (inactive) |
| CC1(Cl)CC(C)(/C=C/Cl)C(Cl)CC1Cl (configuration not stated) | 15.4 µM (inactive) | – | 10.1 µM (inactive) | 14.1 µM | 19.9 µM (inactive) | 11.6 µM (inactive) | 17 µM (inactive) | – | 18.9 µM (inactive) | 14.8 µM (inactive) | 38.4 µM (inactive) | 18.8 µM (inactive) | 18.2 µM (inactive) | 15.7 µM (inactive) | 16.1 µM (inactive) | 16.1 µM (inactive) |
| CC1=CCCC2C(C=O)(C1)CC(C)C2(CO)CC/C(=C/CO)CO (configuration not stated) | > 100 µM (inactive) | > 100 µM (inactive) | 69.5 µM (inactive) | > 100 µM | – | > 100 µM (inactive) | > 100 µM (inactive) | 38.5 µM (inactive) | – | > 100 µM (inactive) | > 100 µM (inactive) | 37.8 µM (inactive) | – | > 100 µM (inactive) | > 100 µM (inactive) | 24.9 µM (inactive) |
| CCN(c1n[n+]2c(-c3ccccc3)csc2s1)c1n[n+]2c(-c3ccccc3)csc2s1 | > 100 µM (inactive) | 26.4 µM (inactive) | 19.3 µM (inactive) | > 100 µM | – | 66.1 µM (inactive) | 92.5 µM (inactive) | > 100 µM (inactive) | > 100 µM (inactive) | 65.9 µM (inactive) | > 100 µM (inactive) | > 100 µM (inactive) | 20.5 µM (inactive) | 94.6 µM (inactive) | > 100 µM (inactive) | > 100 µM (inactive) |
| Cc1c(C(=O)/C=C/c2ccccc2)[n+]([O-])c2ccccc2[n+]1[O-] | 17.2 µM (inactive) | 16.3 µM (inactive) | 15.8 µM (inactive) | – | 18.1 µM (inactive) | 19.3 µM (inactive) | 15.3 µM (inactive) | 20.8 µM (inactive) | 16.7 µM (inactive) | 2.07 µM (inactive) | 20.1 µM (inactive) | 23.6 µM (inactive) | 23.2 µM (inactive) | 14.8 µM (inactive) | 15.1 µM (inactive) | 20 µM (inactive) |
